From patent US10780101B2, “Amide derivatives of squalamine for the treatment of infections” (VIRBAC, priority 2016, dated 2020)
≈ marks a conversion by molar mass, not a printed value. Read-outs that look alike come from different tables or passages of the source.

Key:
P. aeruginosa (PAO1) = test: MIC of doxycycline alone on PAO1; type: cell-based; conditions: Pseudomonas aeruginosa, Gram-negative strain P. aeruginosa (PAO1)
Description: On the Gram-negative strain of P. aeruginosa (PAO1), doxycycline has an MIC of 40 μg/mL.

[1] = tested on: S. aureus Human ATCC 25923; test: MIC determination, S. aureus human ATCC 25923; type: cell-based; conditions: Staphylococcus aureus, ATCC25923; Gram-positive; Mueller-Hinton medium, 24 h at 37° C.
In short: (§1)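 Broth microdilution in Mueller-Hinton medium; compounds from 5 mg/mL stock in DMSO/methanol (50/50), twofold serial dilutions, inoculum adjusted to OD 0.01. Plates incubated 24 h at 37 °C, humid atmosphere; OD read at 620 nm to derive MIC, duplicates.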

[2] = tested on: S. intermedius Animal (1051997); test: MIC determination, S. intermedius animal (1051997); type: cell-based; conditions: Staphylococcus intermedius; Gram-positive; Mueller-Hinton medium, 24 h at 37° C.
In short: as §1

S. aureus Animal (340) = test: MIC determination, S. aureus animal (340); type: cell-based; conditions: Staphylococcus aureus; Gram-positive; Mueller-Hinton medium, 24 h at 37° C.
In short: as §1

[3] = tested on: P. aeruginosa Animal (1051575); test: MIC determination, P. aeruginosa animal (1051575); type: cell-based; conditions: Pseudomonas aeruginosa; Gram-negative; Mueller-Hinton medium, 24 h at 37° C.
In short: as §1

[4] = tested on: E. faecalis Human ATCC 29212; test: MIC determination, E. faecalis human ATCC 29212; type: cell-based; conditions: Enterococcus faecalis, ATCC29212; Gram-positive; Mueller-Hinton medium, 24 h at 37° C.
In short: as §1

P. aeruginosa (1051575) [5] = test: Potentiation of doxycycline activity (combination MIC); type: cell-based, Pseudomonas aeruginosa; conditions: in presence of doxycycline 2 μg/mL; 24 hours at 37° C.
E. coli Animal (1956) = test: MIC determination, E. coli animal (1956); type: cell-based; conditions: Escherichia coli; Gram-negative; Mueller-Hinton medium, 24 h at 37° C.
In short: as §1

E. coli Human ATCC 28922 = test: MIC determination, E. coli human ATCC 28922; type: cell-based; conditions: Escherichia coli, ATCC28922; Gram-negative; Mueller-Hinton medium, 24 h at 37° C.
In short: as §1

[6] = tested on: P. aeruginosa Human ATCC 27853; test: MIC determination, P. aeruginosa human ATCC 27853; type: cell-based; conditions: Pseudomonas aeruginosa, ATCC27853; Gram-negative; Mueller-Hinton medium, 24 h at 37° C.
In short: as §1

CHO-K1 cells = test: WST1 cytotoxicity test on CHO-K1 cells; type: cell-based, Chinese hamster; conditions: Cricetulus griseus
In short: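 CHO-K1 cells pre-grown 24 h, then exposed to increasing compound concentrations in duplicate for 24 h at 37° C, 5% CO2. Viability read after 20 min with 10% WST-1 in PBS at 450 nm; IC50 from nonlinear regression as concentration cutting viability 50%.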

C. albicans = test: Antifungal activity, cascade microdilution; type: cell-based; conditions: Candida albicans, 24 h, read-out: IC50 (μg/mL) C. albicans
P. aeruginosa (1051575) [7] = test: Potentiation of erythromycin activity (combination MIC); type: cell-based, Pseudomonas aeruginosa; conditions: erythromycin 2 μg/mL; concentration of compound required to restore antibiotic activity
Description: (§2) This method requires the use of a 96-well plate: 100 μL of a liquid culture medium are placed in each well and then seeded with the microbial suspension prepared previously. The required volume to be seeded is calculated for an OD of 0.01, which corresponds to about 5×10^6 bacteria in each well. In this plate, the first line corresponds to a negative control (200 μL of sterile culture medium in each well), the second line corresponds to a positive control (100 μL of sterile culture medium+100 μL of the bacterial suspension), and the third line contains 192 μL of culture medium; 8 μL of compound of formula (I) to be tested are placed in each well. Thereafter, a cascade dilution is performed from this line. L of a doxycycline solution (1 mg dissolved in 20 mL) are then added to each well of lines 3 to 8 to obtain a final antibiotic concentration of 2 μg/mL. 92 μL of bacterial suspension are then added to lines 3 to 8. The results are read (the determination of the MIC (2 μg/mL of doxycycline) in the presence of X g/mL of compound of formula (I)) after 24 hours of incubation at 37° C. under a humid atmosphere. After 24 hours of incubation at 37° C., 40 μL of nitro tetrazolium iodide are added to each well to reveal the presence of live bacteria by staining the medium pink.
The procedure is identical to that indicated in Example 5 above. 8 μL of an antibiotic solution under consideration (1 mg dissolved in 20 mL) are added to obtain a final antibiotic concentration of 2 μg/mL instead of 8 μL of a doxycycline solution.
(§3) The results are given in table V. They indicate the concentration of compound of formula (I) required to be able to restore the activity of the antibiotic under consideration.

P. aeruginosa (1051575) [8] = test: Potentiation of chloramphenicol activity (combination MIC); type: cell-based, Pseudomonas aeruginosa; conditions: chloramphenicol 2 μg/mL; concentration of compound required to restore antibiotic activity
Description: as §2, with “L of a doxycycline solution (1 mg dissolved in 20 mL) are then added to each well of lines 3 to 8 to obtain a final antibiotic concentration of 2 μg/mL.” left out
The procedure is identical to that indicated in Example 5 above. […]
as §3

[9] = CHO-K1, 24 h, read-out: IC50 (μg/mL) CHO
[10] = CHO-K1, read-out: IC50 (μg/mL) CHO

Row | MIC (P. aeruginosa (PAO1)) [µg/mL] | Compound | MIC [1] [µg/mL] | MIC [2] [µg/mL] | MIC (S. aureus Animal (340)) [µg/mL] | MIC [3] [µg/mL] | MIC [4] [µg/mL] | MIC - P. aeruginosa (1051575): content of compound of formula (I) to restore the doxycycline activity (at 2 μg/mL) (P. aeruginosa (1051575) [5]) [µg/mL] | MIC (E. coli Animal (1956)) [µg/mL] | MIC (E. coli Human ATCC 28922) [µg/mL] | MIC [6] [µg/mL] | IC50 (CHO-K1 cells; [9]) [µg/mL] | IC50 (CHO-K1 cells; [10]) [µg/mL] | IC50 (C. albicans) [µg/mL] | MIC P. aeruginosa (1051575) compound + erythromycin (P. aeruginosa (1051575) [7]) [µg/mL] | MIC P. aeruginosa (1051575) compound + chloramphenicol (P. aeruginosa (1051575) [8]) [µg/mL]
1 | 40 | C[C@H]1c2cccc(O)c2C(=O)C2=C(O)[C@]3(O)C(=O)C(C(N)=O)=C(O)[C@@H](N(C)C)[C@@H]3[C@@H](O)[C@@H]21 [doxycycline] | – | – | – | – | – | – | – | – | – | – | – | – | – | –
2 | – | CC(C)NC(=O)CC[C@@H](C)[C@H]1CCC2C3C(CC[C@@]21C)[C@@]1(C)CC[C@H](NCCCNCCCCNCCCN)CC1C[C@H]3O (stereo partly drawn) [Compound (32), 3β-spermino-N-isopropylchenodeoxycholamide] | 7 (≈ 11.3 µM) | 0.5 (≈ 0.809 µM) | 2 (≈ 3.24 µM) | 15 (≈ 24.3 µM) | 7 (≈ 11.3 µM) | 1 | 31 (≈ 50.2 µM) | 15 (≈ 24.3 µM) | 30 (≈ 48.5 µM) | 34 (≈ 55 µM) | 13 (≈ 21 µM) | 2 (≈ 3.24 µM) | – | –
3 | – | CCN(CC)C(=O)CC[C@@H](C)[C@H]1CCC2C3C(CC[C@@]21C)[C@@]1(C)CC[C@H](NCCCN(CCCN)CCCN)CC1C[C@H]3O (stereo partly drawn) [(44), 3β-(tris(3-aminopropyl)amine)-N,N-diethylchenodeoxycholamide] | 2 (≈ 3.24 µM) | 2 (≈ 3.24 µM) | 4 (≈ 6.47 µM) | 60 (≈ 97.1 µM) | – | 2 | 30 (≈ 48.5 µM) | 15 (≈ 24.3 µM) | 60 (≈ 97.1 µM) | 75 (≈ 121 µM) | 75 (≈ 121 µM) | 0.5 (≈ 0.809 µM) | 8 | 4
4 | – | CC(C)NC(=O)CC[C@@H](C)[C@H]1CCC2C3CCC4C[C@@H](NCCCNCCCNCCCN)CC[C@]4(C)C3C[C@H](O)[C@@]21C (stereo partly drawn) [Compound (1), 3β-norspermino-N-isopropyldeoxycholamide] | 4 (≈ 6.62 µM) | 0.5 (≈ 0.828 µM) | 2 (≈ 3.31 µM) | 8 (≈ 13.2 µM) | 8 (≈ 13.2 µM) | 1 | 8 (≈ 13.2 µM) | 8 (≈ 13.2 µM) | 8 (≈ 13.2 µM) | 42 (≈ 69.5 µM) | 33 (≈ 54.6 µM) | 0.5 (≈ 0.828 µM) | – | –
5 | – | CC(C)NC(=O)CC[C@@H](C)[C@H]1CCC2C3C(CC[C@@]21C)[C@@]1(C)CC[C@H](NCCCNCCCCN)CC1C[C@H]3O (stereo partly drawn) [(52), 3β-spermidino-N-isopropylchenodeoxycholamide] | 7 (≈ 12.5 µM) | 2 (≈ 3.57 µM) | 4 (≈ 7.13 µM) | 112 (≈ 200 µM) | 14 (≈ 25 µM) | 3.5 | 28 (≈ 49.9 µM) | 112 (≈ 200 µM) | 56 (≈ 99.8 µM) | 80 (≈ 143 µM) | 48 (≈ 85.6 µM) | 4 (≈ 7.13 µM) | – | –
6 | – | CCN(CC)C(=O)CC[C@@H](C)[C@H]1CCC2C3C(CC[C@@]21C)[C@@]1(C)CC[C@H](NCCCNCCCCNCCCN)CC1C[C@H]3O (stereo partly drawn) [Compound (34), 3β-spermino-N,N-diethylchenodeoxycholamide] | 4 (≈ 6.33 µM) | 2 (≈ 3.16 µM) | 4 (≈ 6.33 µM) | 16 (≈ 25.3 µM) | 2 (≈ 3.16 µM) | 2 | 8 (≈ 12.7 µM) | 8 (≈ 12.7 µM) | 16 (≈ 25.3 µM) | 50 (≈ 79.1 µM) | 50 (≈ 79.1 µM) | 0.5 (≈ 0.791 µM) | – | –
7 | – | CC(C)NC(=O)CC[C@@H](C)[C@H]1CCC2C3C(CC[C@@]21C)[C@@]1(C)CC[C@H](NCCCN(CCCN)CCCN)CC1C[C@H]3O (stereo partly drawn) [(46), 3β-(tris(3-aminopropyl)amine)-N-isopropylchenodeoxycholamide] | 8 (≈ 13.2 µM) | 2 (≈ 3.31 µM) | 2 (≈ 3.31 µM) | 120 (≈ 199 µM) | 30 (≈ 49.7 µM) | 2 | 30 (≈ 49.7 µM) | > 120 | 60 (≈ 99.3 µM) | 50 (≈ 82.8 µM) | 50 (≈ 82.8 µM) | 1 (≈ 1.66 µM) | – | –
8 | – | CC(C)NC(=O)CC[C@@H](C)[C@H]1CCC2C3CCC4C[C@@H](NCCCN5CCN(CCCN)CC5)CC[C@]4(C)C3CC[C@@]21C (stereo partly drawn) [(19), 3β-(1,4-bis(3-aminopropyl)piperazine)-N-isopropyllithocholamide] | 8 (≈ 13.3 µM) | 4 (≈ 6.67 µM) | 4 (≈ 6.67 µM) | 30 (≈ 50 µM) | 15 (≈ 25 µM) | 8 | 30 (≈ 50 µM) | 30 (≈ 50 µM) | 120 (≈ 200 µM) | 12 (≈ 20 µM) | 12 (≈ 20 µM) | 4 (≈ 6.67 µM) | – | –
